Columns and labels:
CYP3A4 = molecular target: T1, CYP3A4 (Homo sapiens, UniProt P08684); test: Cytochrome P450 inhibition assay (midazolam hydroxylation); format: in vitro ADME; details: human, human liver microsomes, probe midazolam (hydroxylation to 1′-hydroxymidazolam), 10 μM test compound, midazolam at approximately its Km
T1 construct: pre-incubated with human liver microsomes and NADPH; from tissue; host or cells: human liver microsomes
In short: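 Human liver microsomes; CYP3A4 activity as midazolam 1′-hydroxylation with substrate near Km, with or without 10 μM test compound, read as percent inhibition. For time-dependent inhibition, parallel samples were preincubated 30 min with NADPH before substrate, and percent inhibition compared with non-preincubated samples.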

OX1 = molecular target: T2, OX1 (Homo sapiens, UniProt O43613); test: Orexin receptor cell-based functional assay, [Ca2+]i by FLIPR, CHO-OX1 cells; details: CHO-OX1 cells, [Ca2+]i by FLIPR, antagonist dose-range 0.1 nM-10 μM, EC90 of OXA; read-out: OX1
T2 construct: expressed in transfected cells; host or cells: CHO (CHO-OX1, kept under selection antibiotic)
T2 sequence (O43613 1-425): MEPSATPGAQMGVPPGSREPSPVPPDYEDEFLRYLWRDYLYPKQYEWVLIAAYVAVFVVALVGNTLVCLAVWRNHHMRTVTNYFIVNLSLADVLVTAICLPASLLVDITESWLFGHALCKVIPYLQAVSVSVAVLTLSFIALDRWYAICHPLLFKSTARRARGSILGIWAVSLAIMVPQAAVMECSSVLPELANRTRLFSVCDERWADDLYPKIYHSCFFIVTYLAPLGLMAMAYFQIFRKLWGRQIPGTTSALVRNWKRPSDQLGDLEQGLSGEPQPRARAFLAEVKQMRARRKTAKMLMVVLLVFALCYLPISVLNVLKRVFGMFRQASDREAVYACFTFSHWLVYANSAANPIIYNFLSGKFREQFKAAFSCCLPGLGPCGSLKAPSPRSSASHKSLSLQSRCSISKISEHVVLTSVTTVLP
In short: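 CHO cells expressing human OX1 or OX2 loaded with calcium dye plus 2.5 mM probenecid at 37° C (calcium4, 30 min, or calcium6, 2 h), then exposed to compounds (0.1 nM-10 μM) for 30 min. Intracellular Ca2+ measured on FLIPR; antagonist format.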

T1 sequence (P08684 whole entry): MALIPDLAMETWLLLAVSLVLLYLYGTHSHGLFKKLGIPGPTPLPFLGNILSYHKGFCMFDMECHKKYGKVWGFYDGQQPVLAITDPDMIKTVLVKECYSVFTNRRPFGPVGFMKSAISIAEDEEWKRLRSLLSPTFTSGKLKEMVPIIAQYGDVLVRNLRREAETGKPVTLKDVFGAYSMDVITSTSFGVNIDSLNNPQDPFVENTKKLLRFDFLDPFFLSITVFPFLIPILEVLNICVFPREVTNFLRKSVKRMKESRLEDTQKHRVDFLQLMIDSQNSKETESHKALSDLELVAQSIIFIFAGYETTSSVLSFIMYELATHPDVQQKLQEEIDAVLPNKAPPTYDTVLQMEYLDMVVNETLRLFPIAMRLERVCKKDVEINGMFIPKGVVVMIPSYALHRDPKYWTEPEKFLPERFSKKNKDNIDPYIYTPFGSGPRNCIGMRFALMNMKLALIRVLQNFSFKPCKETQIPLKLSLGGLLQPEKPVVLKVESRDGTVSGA

inhibition at 10 µM (CYP3A4) [%]	IC50 (OX1) [nM]	SMILES
60	3	Cc1ccc(-n2nccn2)c(C(=O)N2CCC[C@@H](C)[C@H]2CNc2ncc(C(F)(F)F)cn2)c1 [Example A149, ((2S,3R)-3-Methyl-2-(((5-(trifluoromethyl)pyrimidin-2-yl)amino)methyl)piperidin-1-yl)(5-methyl-2-(2H-1,2,3-triazol-2-yl)phenyl)methanone]
78	3	Cc1ccc(-n2nccn2)c(C(=O)N2CCC[C@@H](C)[C@H]2CNc2nc3cc(Cl)ccc3o2)c1 [Example A11, ((2S,3R)-2-(((5-Chlorobenzo[d]oxazol-2-yl)amino)methyl)-3-methylpiperidin-1-yl)(5-methyl-2-(2H-1,2,3-triazol-2-yl)phenyl)methanone]
76	4	Cc1ccc(-c2ncccn2)c(C(=O)N2CCC[C@@H](C)[C@H]2CNc2ncc(Cl)cc2F)c1 [Example A181, ((2S,3R)-2-(((5-Chloro-3-fluoropyridin-2-yl)amino)methyl)-3-methylpiperidin-1-yl)(5-methyl-2-(pyrimidin-2-yl)phenyl)methanone]
53	6	Cc1ccc(-n2nccn2)c(C(=O)N2CCC[C@@H](C)[C@H]2CNc2ncc(C(F)(F)F)cn2)c1F [Example A319, (2-Fluoro-3-methyl-6-(2H-1,2,3-triazol-2-yl)phenyl)((2S,3R)-3-methyl-2-(((5-(trifluoromethyl)pyrimidin-2-yl)amino)methyl)piperidin-1-yl)methanone]
77	110	Cc1ccc(-n2cccn2)c(C(=O)N2CCC[C@@H](C)[C@H]2CNc2ccc(C(F)(F)F)nn2)c1 [Example A157, ((2S,3R)-3-mMethyl-2-(((6-(trifluoromethyl)pyridazin-3-yl)amino)methyl)piperidin-1-yl)(5-methyl-2-(1H-pyrazol-1-yl)phenyl)methanone]
95	16	CCn1cc(-c2ccc(C)cc2C(=O)N2CCC[C@@H](C)[C@H]2CNc2ccc(C(F)(F)F)cn2)cn1 [Example A110, (2-(1-Ethyl-1H-pyrazol-4-yl)-5-methylphenyl)((2S,3R)-3-methyl-2-(((5-(trifluoromethyl)pyridin-2-yl)amino)methyl)piperidin-1-yl)methanone]
59	10	Cc1ccc(-n2cccn2)c(C(=O)N2CCC[C@@H](C)[C@H]2CNc2ccc(Cl)cn2)n1 [Example A168, ((2S,3R)-2-(((5-Chloropyridin-2-yl)amino)methyl)-3-methylpiperidin-1-yl)(6-methyl-3-(1H-pyrazol-1-yl)pyridin-2-yl)methanone]
70	1300	C[C@@H]1CCCN(C(=O)c2cc(F)c(F)cc2-c2ncccn2)[C@@H]1CNc1ncc(Cl)cn1 [Example A244, ((2S,3R)-2-(((5-Chloropyrimidin-2-yl)amino)methyl)-3-methylpiperidin-1-yl) (4,5-difluoro-2-(pyrimidin-2-yl)phenyl)methanone]
59	1	C[C@@H]1CCCN(C(=O)c2cc(Cl)ccc2-n2nccn2)[C@@H]1CNc1ncc(C(F)(F)F)cn1 [Example A160, (5-Chloro-2-(2H-1,2,3-triazol-2-yl)phenyl)((2S,3R)-3-methyl-2-(((5-(trifluoromethyl)pyrimidin-2-yl)amino)methyl)piperidin-1-yl)methanone]
52	340	Cc1ccc(-n2nccn2)c(C(=O)N2CCC[C@@H](C)[C@H]2CNc2ncccc2C)c1 [Example A99, ((2S,3R)-3-Methyl-2-(((3-methylpyridin-2-yl)amino)methyl)piperidin-1-yl)(5-methyl-2-(2H-1,2,3-triazol-2-yl)phenyl)methanone]
98	20	Cc1ccc(-c2cnn(C)c2)c(C(=O)N2CCC[C@@H](C)[C@H]2CNc2nc3cc(Cl)ccc3o2)c1 [Example A12, ((2S,3R)-2-(((5-chlorobenzo[d]oxazol-2-yl)amino)methyl)-3-methylpiperidin-1-yl)(5-methyl-2-(1-methyl-1H-pyrazol-4-yl)phenyl)methanone]
62	15	Cc1ccc(-c2ccccn2)c(C(=O)N2CCC[C@@H](C)[C@H]2CNc2nc3cc(Cl)ccc3o2)n1 [Example A199, ((2S,3R)-2-(((5-Chlorobenzo[d]oxazol-2-yl)amino)methyl)-3-methylpiperidin-1-yl)(6′-methyl-[2,3′-bipyridin]-2′-yl)methanone]
29	> 1000	Cc1ccc(-n2nccn2)c(C(=O)N2CCC[C@@H](C)[C@H]2CNc2ccc(C)nn2)c1 [Example A146, ((2S,3R)-3-Methyl-2-(((6-methylpyridazin-3-yl)amino)methyl)piperidin-1-yl)(5-methyl-2-(2H-1,2,3-triazol-2-yl)phenyl)methanone]
68	13	C[C@@H]1CCCN(C(=O)c2cc(Cl)ccc2-n2nccn2)[C@@H]1CNc1ccc(Cl)cn1 [Example A161]
24	2000	Cc1ccc(-n2nccn2)c(C(=O)N2CCC[C@@H](C)[C@H]2CNc2ncc(C#N)cn2)n1 [Example A190, 2-((((2S,3R)-3-Methyl-1-(6-methyl-3-(2H-1,2,3-triazol-2-yl)picolinoyl)piperidin-2-yl)methyl)amino)pyrimidine-5-carbonitrile]
47	31	Cc1ccc(-c2ncccn2)c(C(=O)N2CCC[C@@H](C)[C@H]2CNc2ccc(C(F)(F)F)nn2)c1 [Example A137, ((2S,3R)-3-Methyl-2-(((6-(trifluoromethyl)pyridazin-3-yl)amino)methyl)piperidin-1-yl)(5-methyl-2-(pyrimidin-2-yl)phenyl)methanone]
73	54	C[C@@H]1CCCN(C(=O)c2cc(Cl)ccc2-c2ncccn2)[C@@H]1CNc1ccc(C(F)(F)F)nn1 [Example A200, (5-Chloro-2-(pyrimidin-2-yl)phenyl)((2S,3R)-3-methyl-2-(((6-(trifluoromethyl)pyridazin-3-yl)amino)methyl)piperidin-1-yl)methanone]
95	20	Cc1ccc(-n2cnc(C)n2)c(C(=O)N2CCC[C@@H](C)[C@H]2CNc2ccc(C(F)(F)F)cn2)c1 [Example A17, ((2S,3R)-3-Methyl-2-(((5-(trifluoromethyl)pyridin-2-yl)amino)methyl)piperidin-1-yl)(5-methyl-2-(3-methyl-1H-1,2,4-triazol-1-yl)phenyl)methanone]
96	460	Cc1ccc(-c2cnn(C)c2)c(C(=O)N2CCC[C@@H](C)[C@H]2CNc2ncccc2C(F)(F)F)c1 [Example A93, ((2S,3R)-3-Methyl-2-(((3-(trifluoromethyl)pyridin-2-yl)amino)methyl)piperidin-1-yl)(5-methyl-2-(1-methyl-1H-pyrazol-4-yl)phenyl)methanone]
83	37	Cc1ccc(-c2nccn2C)c(C(=O)N2CCC[C@@H](C)[C@H]2CNc2ccc(C(F)(F)F)cn2)c1 [Example A20, ((2S,3R)-3-Methyl-2-(((5-(trifluoromethyl)pyridin-2-yl)amino)methyl)piperidin-1-yl)(5-methyl-2-(1-methyl-1H-imidazol-2-yl)phenyl)methanone]

Reference: patent US9440982B2 (Eolas Therapeutics, Inc., priority 2012, dated 2016)
